Data from patent publication US10787450B2 (BRISTOL-MYERS SQUIBB COMPANY, priority 2016, dated 2020).

These compounds were tested against ROCK2 (Homo sapiens (Human), UniProt O75116) (assay: ROCK2 kinase inhibition assay (FITC peptide substrate, LABCHIP 3000 Reader)). Settings: 5 μM ATP, 1.5 μM peptide substrate.
Format: biochemical
Experimental: The effectiveness of compounds of the present invention as ROCK inhibitors can be determined in a 30 μL assay containing 20 mM HEPES, pH 7.5, 20 mM MgCl2, 0.015% Brij-35, 4 mM DTT, 5 μM ATP and 1.5 μM peptide substrate (FITC-AHA-AKRRRLSSLRA-OH) (SEQ ID NO. 1). Compounds were dissolved in DMSO so that the final concentration of DMSO was <2%, and the reaction was initiated with Rho kinase variants. After incubation, the reaction was terminated by the addition of EDTA and the phosphorylated and non-phosphorylated peptides separated using a LABCHIP® 3000 Reader (Caliper Life Sciences). […] Compounds were tested in dose-response format, and the inhibition of kinase activity was calculated at each concentration of compound. The inhibition data were fit using a curve-fitting program to determine the IC50; i.e., the concentration of compound required to inhibit 50% of kinase activity.
Representative examples were tested in the ROCK2 assay described above and found having ROCK2 inhibitory activity.

Sequence of ROCK2 (O75116 whole entry, species assumed): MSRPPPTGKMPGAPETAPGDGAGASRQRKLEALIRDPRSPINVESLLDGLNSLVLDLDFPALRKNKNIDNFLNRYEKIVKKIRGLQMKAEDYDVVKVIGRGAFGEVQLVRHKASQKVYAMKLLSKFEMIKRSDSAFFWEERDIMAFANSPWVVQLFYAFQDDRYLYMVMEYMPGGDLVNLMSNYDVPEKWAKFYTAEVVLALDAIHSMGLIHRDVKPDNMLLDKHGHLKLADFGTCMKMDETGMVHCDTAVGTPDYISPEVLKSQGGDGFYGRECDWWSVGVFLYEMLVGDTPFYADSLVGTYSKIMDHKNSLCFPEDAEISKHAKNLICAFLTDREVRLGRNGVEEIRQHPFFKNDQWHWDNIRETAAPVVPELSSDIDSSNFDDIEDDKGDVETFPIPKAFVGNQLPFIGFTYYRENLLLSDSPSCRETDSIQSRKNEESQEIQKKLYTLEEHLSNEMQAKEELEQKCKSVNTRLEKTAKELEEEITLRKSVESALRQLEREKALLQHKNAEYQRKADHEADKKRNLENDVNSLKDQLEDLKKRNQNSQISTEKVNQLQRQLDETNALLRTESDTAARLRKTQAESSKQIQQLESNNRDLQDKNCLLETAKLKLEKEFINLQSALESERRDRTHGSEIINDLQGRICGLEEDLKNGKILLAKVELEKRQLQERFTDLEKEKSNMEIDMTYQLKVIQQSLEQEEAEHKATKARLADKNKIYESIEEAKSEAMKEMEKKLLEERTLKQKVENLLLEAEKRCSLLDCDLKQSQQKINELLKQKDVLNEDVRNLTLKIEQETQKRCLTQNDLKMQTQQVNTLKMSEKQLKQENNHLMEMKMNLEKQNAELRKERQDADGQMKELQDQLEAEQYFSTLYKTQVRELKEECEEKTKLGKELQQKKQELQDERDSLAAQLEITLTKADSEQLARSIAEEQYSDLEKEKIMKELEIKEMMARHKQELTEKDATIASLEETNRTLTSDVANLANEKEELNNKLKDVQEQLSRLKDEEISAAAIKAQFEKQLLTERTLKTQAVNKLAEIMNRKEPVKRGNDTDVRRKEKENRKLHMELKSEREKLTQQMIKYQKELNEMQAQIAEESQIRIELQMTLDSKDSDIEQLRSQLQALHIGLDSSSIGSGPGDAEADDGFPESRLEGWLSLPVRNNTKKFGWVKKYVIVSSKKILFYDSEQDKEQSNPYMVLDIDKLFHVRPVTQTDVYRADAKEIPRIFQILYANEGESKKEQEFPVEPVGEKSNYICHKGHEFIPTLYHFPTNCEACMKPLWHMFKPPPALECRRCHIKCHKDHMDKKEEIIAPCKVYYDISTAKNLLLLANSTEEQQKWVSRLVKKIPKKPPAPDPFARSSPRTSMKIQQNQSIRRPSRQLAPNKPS

Compound	IC50
COc1cccc(CN2C(=O)N(c3ccc(-c4cn[nH]c4)cc3)CC23CCN(C(=O)CO)CC3)c1 [Example 176, 3-(4-(1H-pyrazol-4-yl)phenyl)-8-(2-hydroxyacetyl)-1-(3-methoxybenzyl)-1,3,8-triazaspiro[4.5]decan-2-one]	< 3 nM
COc1cccc(NC2C(=O)N(c3ncc(-c4cn[nH]c4)c(OC)n3)CC23CCN(C(=O)OC(C)(C)C)CC3)c1 (stereo not shown) [Example 241, tert-butyl 2-(4-methoxy-5-(1H-pyrazol-4-yl)pyrimidin-2-yl)-4-((3-methoxyphenyl)amino)-3-oxo-2,8-diazaspiro[4.5]decane-8-carboxylate]	250 to 3000 nM
CCOC(=O)N1CCC2(CC1)CN(c1ccc(-c3cn[nH]c3)c(CC)n1)C(=O)N2Cc1cc(F)cc(OC)c1 [Example 106, ethyl 3-(6-ethyl-5-(1H-pyrazol-4-yl)pyridin-2-yl)-1-(3-fluoro-5-methoxybenzyl)-2-oxo-1,3,8-triazaspiro[4.5]decane-8-carboxylate]	3 to 30 nM
COC(=O)N1CCC2(CC1)CN(c1ccc(-c3cn[nH]c3)c(OC)n1)C(=O)N2Cc1cccc(OC)c1 [Example 102, methyl 3-(6-methoxy-5-(1H-pyrazol-4-yl)pyridin-2-yl)-1-(3-methoxybenzyl)-2-oxo-1,3,8-triazaspiro[4.5]decane-8-carboxylate]	< 3 nM
CCc1nc(N2CC3(CCN(CCO)CC3)N(Cc3cccc(OC)c3)C2=O)ccc1-c1cn[nH]c1 [Example 150, 3-(6-ethyl-5-(1H-pyrazol-4-yl)pyridin-2-yl)-8-(2-hydroxyethyl)-1-(3-methoxybenzyl)-1,3,8-triazaspiro[4.5]decan-2-one]	< 3 nM
COc1nc(N2CC3(CCN(C(=O)CC(C)c4ccccc4)CC3)N(Cc3cccc(F)c3C)C2=O)ccc1-c1cn[nH]c1 (stereo not shown) [Example 224, 1-(3-fluoro-2-methylbenzyl)-3-(6-methoxy-5-(1H-pyrazol-4-yl)pyridin-2-yl)-8-(3-phenylbutanoyl)-1,3,8-triazaspiro[4.5]decan-2-one]	3 to 30 nM
CC(=O)N1CCC2(CC1)CN(c1ccc(-c3cn[nH]c3)cc1)C(=O)N2CC1CCCCC1 [Example 79, 3-(4-(1H-pyrazol-4-yl)phenyl)-8-acetyl-1-(cyclohexylmethyl)-1,3,8-triazaspiro[4.5]decan-2-one]	30 to 250 nM
O=C(NCCO)c1cccc(CN2C(=O)N(c3ccc(-c4cn[nH]c4)cc3)CC23CCOCC3)c1 [Example 36, 3-((3-(4-(1H-pyrazol-4-yl)phenyl)-2-oxo-8-oxa-1,3-diazaspiro[4.5]decan-1-yl)methyl)-N-(2-hydroxyethyl)benzamide]	< 3 nM
O=C(NCC1CC1)c1cccc(CN2C(=O)N(c3ccc(-c4cn[nH]c4)cc3)CC23CCOCC3)c1 [Example 37, 3-((3-(4-(1H-pyrazol-4-yl)phenyl)-2-oxo-8-oxa-1,3-diazaspiro[4.5]decan-1-yl)methyl)-N-(cyclopropylmethyl)benzamide]	< 3 nM
CCc1nc(N2CC3(CCN(C(C)=O)CC3)N(Cc3cccc(F)c3C)C2=O)ccc1-c1cn[nH]c1 [Example 87, 8-acetyl-3-(6-ethyl-5-(1H-pyrazol-4-yl)pyridin-2-yl)-1-(3-fluoro-2-methylbenzyl)-1,3,8-triazaspiro[4.5]decan-2-one]	< 3 nM
CCc1nc(N2CC3(CCN(C(=O)C4CCCO4)CC3)N(Cc3cccc(OC)c3)C2=O)ccc1-c1cn[nH]c1 (stereo not shown) [Example 207, 3-(6-ethyl-5-(1H-pyrazol-4-yl)pyridin-2-yl)-1-(3-methoxybenzyl)-8-(tetrahydrofuran-2-carbonyl)-1,3,8-triazaspiro[4.5]decan-2-one]	< 3 nM
COc1cccc(CN2C(=O)N(c3ccc(-c4cn[nH]c4)cc3)CC23CCOCC3)c1F [Example 29, 3-(4-(1H-pyrazol-4-yl)phenyl)-1-(2-fluoro-3-methoxybenzyl)-8-oxa-1,3-diazaspiro[4.5]decan-2-one]	30 to 250 nM
COc1cccc(CN2C(=O)N(c3ccc(-c4cn[nH]c4)cc3)CC23CCN(CCc2ccccc2)CC3)c1 [Example 125, 3-(4-(1H-pyrazol-4-yl)phenyl)-1-(3-methoxybenzyl)-8-phenethyl-1,3,8-triazaspiro[4.5]decan-2-one]	3 to 30 nM
